Like-named read-outs stand apart in the source and are kept apart here.
Key:
[1] = test system: clinical isolates of M. tuberculosis; format: cell-based
[2] = test system: clinical isolates of multidrug-resistant M. tuberculosis

## NCC[C@H](O)C(=O)N[C@@H]1C[C@H](N)[C@@H](O[C@H]2O[C@H](CN)[C@@H](O)[C@H](O)[C@H]2O)[C@H](O)[C@H]1O[C@H]1O[C@H](CO)[C@@H](O)[C@H](N)[C@H]1O [Amikacin]
[1]; strain 176949/08, 0.25 μg/ml
  Activity (resistant/susceptible): R
[1]; strain 176949/08, 1 μg/ml
  Activity (resistant/susceptible): S
[1]; strain 176949/08, 4 μg/ml
  Activity (resistant/susceptible): S
[1]; strain 177581/08, 0.25 μg/ml
  Activity (resistant/susceptible): R
[1]; strain 177581/08, 1 μg/ml
  Activity (resistant/susceptible): S
[1]; strain 177581/08, 4 μg/ml
  Activity (resistant/susceptible): S
[1]; strain 177958/08, 0.25 μg/ml
  Activity (resistant/susceptible): R
[1]; strain 177958/08, 1 μg/ml
  Activity (resistant/susceptible): S
[1]; strain 177958/08, 4 μg/ml
  Activity (resistant/susceptible): S
[1]; strain 178331/08, 0.25 μg/ml
  Activity (resistant/susceptible): R
[1]; strain 178331/08, 1 μg/ml
  Activity (resistant/susceptible): S
[1]; strain 178331/08, 4 μg/ml
  Activity (resistant/susceptible): S
[1]; strain 178557/08, 0.25 μg/ml
  Activity (resistant/susceptible): R
[1]; strain 178557/08, 1 μg/ml
  Activity (resistant/susceptible): S
[1]; strain 178557/08, 4 μg/ml
  Activity (resistant/susceptible): S

## CNC1C(OC2OC(CO)C(N)C(O)C2O)OC2CC(N)C(OC3C(N)CC(N)C(O)C3O)OC2C1O (centres unmarked) [Apramycin]
[1]; strain 176949/08, 0.25 μg/ml
  Activity (resistant/susceptible): R
[1]; strain 176949/08, 1 μg/ml
  Activity (resistant/susceptible): S
[1]; strain 176949/08, 4 μg/ml
  Activity (resistant/susceptible): S
[1]; strain 177581/08, 0.25 μg/ml
  Activity (resistant/susceptible): R
[1]; strain 177581/08, 1 μg/ml
  Activity (resistant/susceptible): S
[1]; strain 177581/08, 4 μg/ml
  Activity (resistant/susceptible): S
[1]; strain 177712/08, 0.25 μg/ml
  Activity (resistant/susceptible): R
[1]; strain 177712/08, 1 μg/ml
  Activity (resistant/susceptible): S
[1]; strain 177712/08, 4 μg/ml
  Activity (resistant/susceptible): S
[1]; strain 177809/08, 0.25 μg/ml
  Activity (resistant/susceptible): R
[1]; strain 177809/08, 1 μg/ml
  Activity (resistant/susceptible): S
[1]; strain 177809/08, 4 μg/ml
  Activity (resistant/susceptible): S
[1]; strain 177958/08, 0.25 μg/ml
  Activity (resistant/susceptible): R
[1]; strain 177958/08, 1 μg/ml
  Activity (resistant/susceptible): S
[1]; strain 177958/08, 4 μg/ml
  Activity (resistant/susceptible): S
[1]; strain 178122/08, 0.25 μg/ml
  Activity (resistant/susceptible): R
[1]; strain 178122/08, 1 μg/ml
  Activity (resistant/susceptible): S
[1]; strain 178122/08, 4 μg/ml
  Activity (resistant/susceptible): S
[1]; strain 178242/08, 0.25 μg/ml
  Activity (resistant/susceptible): R
[1]; strain 178242/08, 1 μg/ml
  Activity (resistant/susceptible): S
[1]; strain 178242/08, 4 μg/ml
  Activity (resistant/susceptible): S
[1]; strain 178331/08, 0.25 μg/ml
  Activity (resistant/susceptible): R
[1]; strain 178331/08, 1 μg/ml
  Activity (resistant/susceptible): S
[1]; strain 178331/08, 4 μg/ml
  Activity (resistant/susceptible): S
[1]; strain 178557/08, 0.25 μg/ml
  Activity (resistant/susceptible): R
[1]; strain 178557/08, 1 μg/ml
  Activity (resistant/susceptible): S
[1]; strain 178557/08, 4 μg/ml
  Activity (resistant/susceptible): S
[1]; strain 178594/08, 0.25 μg/ml
  Activity (resistant/susceptible): R
[1]; strain 178594/08, 1 μg/ml
  Activity (resistant/susceptible): S
[1]; strain 178594/08, 4 μg/ml
  Activity (resistant/susceptible): S
[2]; strain 186002/10, 0.25 μg/ml
  Activity (resistant/susceptible): R
[2]; strain 186002/10, 1 μg/ml
  Activity (resistant/susceptible): S
[2]; strain 186002/10, 4 μg/ml
  Activity (resistant/susceptible): S
[2]; strain 186002/10, 10 μg/ml
  Activity (resistant/susceptible): S
[2]; strain 186005/09, 0.25 μg/ml
  Activity (resistant/susceptible): R
[2]; strain 186005/09, 1 μg/ml
  Activity (resistant/susceptible): S
[2]; strain 186005/09, 4 μg/ml
  Activity (resistant/susceptible): S
[2]; strain 186005/09, 10 μg/ml
  Activity (resistant/susceptible): S
[2]; strain 186010/09, 0.25 μg/ml
  Activity (resistant/susceptible): R
[2]; strain 186010/09, 1 μg/ml
  Activity (resistant/susceptible): S
[2]; strain 186010/09, 4 μg/ml
  Activity (resistant/susceptible): S
[2]; strain 186010/09, 10 μg/ml
  Activity (resistant/susceptible): S
[2]; strain 186013/09, 0.25 μg/ml
  Activity (resistant/susceptible): R
[2]; strain 186013/09, 1 μg/ml
  Activity (resistant/susceptible): S
[2]; strain 186013/09, 4 μg/ml
  Activity (resistant/susceptible): S
[2]; strain 186013/09, 10 μg/ml
  Activity (resistant/susceptible): S
[2]; strain 186014/09, 0.25 μg/ml
  Activity (resistant/susceptible): R
[2]; strain 186014/09, 1 μg/ml
  Activity (resistant/susceptible): S
[2]; strain 186014/09, 4 μg/ml
  Activity (resistant/susceptible): S
[2]; strain 186014/09, 10 μg/ml
  Activity (resistant/susceptible): S

## [H]/N=C(/N)N[C@H]1[C@H](O)[C@@H](O)[C@H](O[C@@H]2O[C@@H](C)[C@](O)(C=O)[C@H]2O[C@@H]2O[C@@H](CO)[C@H](O)[C@@H](O)[C@@H]2NC)[C@@H](N/C(N)=N\[H])[C@@H]1O [Streptomycin]
[1]; strain 176949/08, 0.25 μg/ml
  Activity (resistant/susceptible): S
[1]; strain 176949/08, 1 μg/ml
  Activity (resistant/susceptible): S
[1]; strain 176949/08, 4 μg/ml
  Activity (resistant/susceptible): S
[1]; strain 177581/08, 0.25 μg/ml
  Activity (resistant/susceptible): S
[1]; strain 177581/08, 1 μg/ml
  Activity (resistant/susceptible): S
[1]; strain 177581/08, 4 μg/ml
  Activity (resistant/susceptible): S
[1]; strain 177958/08, 0.25 μg/ml
  Activity (resistant/susceptible): R
[1]; strain 177958/08, 1 μg/ml
  Activity (resistant/susceptible): S
[1]; strain 177958/08, 4 μg/ml
  Activity (resistant/susceptible): S
[1]; strain 178331/08, 0.25 μg/ml
  Activity (resistant/susceptible): R
[1]; strain 178331/08, 1 μg/ml
  Activity (resistant/susceptible): S
[1]; strain 178331/08, 4 μg/ml
  Activity (resistant/susceptible): S
[1]; strain 178557/08, 0.25 μg/ml
  Activity (resistant/susceptible): R
[1]; strain 178557/08, 1 μg/ml
  Activity (resistant/susceptible): S
[1]; strain 178557/08, 4 μg/ml
  Activity (resistant/susceptible): S

— patent US9271993B2, “Treatment of bacterial infectious diseases” (priority 2010, dated 2016)
